Test results published in paper doi:10.1101/2025.02.25.640225v1 (biorxiv, 2025).

Legend:
Rv1723 = Rv1723 (Mycobacterium tuberculosis, UniProt P71981)
Rv0309 = Rv0309 (Mycobacterium tuberculosis, UniProt O07236)
DapE = DapE (Mycobacterium tuberculosis, UniProt P9WHS9)
DapE, sequence (P9WHS9 whole entry, looked up): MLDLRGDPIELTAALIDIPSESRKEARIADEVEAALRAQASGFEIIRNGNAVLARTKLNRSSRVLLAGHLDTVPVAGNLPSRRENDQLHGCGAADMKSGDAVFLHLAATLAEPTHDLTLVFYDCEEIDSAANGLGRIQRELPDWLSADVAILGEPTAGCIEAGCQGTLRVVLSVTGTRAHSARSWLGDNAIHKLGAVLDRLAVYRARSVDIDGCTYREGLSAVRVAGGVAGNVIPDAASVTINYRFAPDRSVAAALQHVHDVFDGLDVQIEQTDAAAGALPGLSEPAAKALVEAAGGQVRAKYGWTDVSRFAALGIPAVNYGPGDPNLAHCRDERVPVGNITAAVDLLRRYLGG

Rv1723, sequence (P71981 1-415): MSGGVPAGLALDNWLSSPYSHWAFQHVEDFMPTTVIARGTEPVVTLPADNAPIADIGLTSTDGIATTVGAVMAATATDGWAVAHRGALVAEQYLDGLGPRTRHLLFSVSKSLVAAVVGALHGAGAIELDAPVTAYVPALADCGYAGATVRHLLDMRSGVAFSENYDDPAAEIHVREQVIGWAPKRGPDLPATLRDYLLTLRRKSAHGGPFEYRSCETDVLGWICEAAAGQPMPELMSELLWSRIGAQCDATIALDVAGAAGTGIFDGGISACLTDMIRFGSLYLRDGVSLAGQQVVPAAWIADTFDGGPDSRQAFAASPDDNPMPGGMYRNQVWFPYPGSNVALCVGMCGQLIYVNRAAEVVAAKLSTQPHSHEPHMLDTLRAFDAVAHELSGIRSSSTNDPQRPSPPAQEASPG
Rv0309, sequence (O07236 19-218 limits assumed): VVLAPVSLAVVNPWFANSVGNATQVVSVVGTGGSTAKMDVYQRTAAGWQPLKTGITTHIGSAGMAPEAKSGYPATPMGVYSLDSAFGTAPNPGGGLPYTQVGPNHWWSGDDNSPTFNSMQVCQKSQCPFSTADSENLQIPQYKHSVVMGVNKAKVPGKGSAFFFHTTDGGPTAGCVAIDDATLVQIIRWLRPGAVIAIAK

## CO[C@@]1(NC(=O)Cc2cccs2)C(=O)N2C(C(=O)O)=C(COC(N)=O)CS[C@@H]21 [cefoxitin]
Rv1723
  native MS (acyl-enzyme): binding to cefoxitin was only partial

## C[C@@H](O)[C@H]1C(=O)N2C(C(=O)O)=C(S[C@@H]3CN[C@H](C(=O)N(C)C)C3)[C@H](C)[C@H]12 [meropenem]
Rv0309
  native MS (acyl-enzyme); competition of Mero-sCy5 labelling; inhibition of nitro: Rv0309 partially bound meropenem

## C[C@@H](O)[C@H]1C(=O)N2C(C(=O)O)=C(S[C@H]3C[C@@H](C(=O)N(C)C)N(C(=O)CCCCC[N+]4=C(/C=C/C=C/C=C5/N(C)c6ccc(S(=O)(=O)O)cc6C5(C)C)C(C)(C)c5cc(S(=O)(=O)[O-])ccc54)C3)[C@H](C)[C@H]12 [Mero-sCy5]
DapE
  fluorescent gel labelling (SDS-PAGE): Mero-sCy5 labeled all enzymes
